Source: the NIST ThermoML archive (doi:10.1016/j.fluid.2014.10.002)
Values joined by “and” are separate entries in the source; they are usually repeats but may differ in a detail not shown here. Identical values can stand only once. ± gives the expanded uncertainty stated by the source.

Conditions: Liquid

CCCCC(CC)COC(=O)c1ccc(C(=O)OCC(CC)CCCC)c(C(=O)OCC(CC)CCCC)c1 (stereo unspecified) [tris(2-ethylhexyl) trimellitate]
Conditions | viscosity
303.15 K, 980 kPa, Vibrating wire viscometry | 158.5 ± 5.1 mPa·s
303.15 K, 1030 kPa, Vibrating wire viscometry | 158.4 ± 5.1 mPa·s
303.15 K, 1080 kPa, Vibrating wire viscometry | 158.9 ± 5.1 mPa·s
303.15 K, 15060 kPa, Vibrating wire viscometry | 220.6 ± 7.7 mPa·s and 220.2 ± 7.7 mPa·s
303.15 K, 29810 kPa, Vibrating wire viscometry | 302.4 ± 12 mPa·s and 302.1 ± 12 mPa·s
303.15 K, 29820 kPa, Vibrating wire viscometry | 303.1 ± 12 mPa·s
303.16 K, 2820 kPa, Vibrating wire viscometry | 165 ± 5 mPa·s
303.16 K, 2850 kPa, Vibrating wire viscometry | 165.1 ± 5.4 mPa·s and 165.7 ± 5.4 mPa·s
303.16 K, 5120 kPa, Vibrating wire viscometry | 174.3 ± 5.7 mPa·s
303.16 K, 5130 kPa, Vibrating wire viscometry | 173.4 ± 5.7 mPa·s and 173.8 ± 5.7 mPa·s and 173.6 ± 5.7 mPa·s
303.16 K, 7680 kPa, Vibrating wire viscometry | 183.8 ± 6.1 mPa·s [middle of 4 runs]
303.16 K, 7690 kPa, Vibrating wire viscometry | 183.8 ± 6.1 mPa·s
303.16 K, 9830 kPa, Vibrating wire viscometry | 193.9 ± 6.6 mPa·s
303.16 K, 9850 kPa, Vibrating wire viscometry | 193.9 ± 6.6 mPa·s
303.16 K, 9880 kPa, Vibrating wire viscometry | 194.1 ± 6.6 mPa·s
303.16 K, 19950 kPa, Vibrating wire viscometry | 242.6 ± 8.8 mPa·s
303.16 K, 19980 kPa, Vibrating wire viscometry | 242.8 ± 8.8 mPa·s
303.16 K, 19990 kPa, Vibrating wire viscometry | 242.8 ± 8.8 mPa·s
303.16 K, 20010 kPa, Vibrating wire viscometry | 243.8 ± 8.8 mPa·s
303.16 K, 29820 kPa, Vibrating wire viscometry | 303.5 ± 12 mPa·s and 303.8 ± 12 mPa·s
303.16 K, 29830 kPa, Vibrating wire viscometry | 302.3 ± 12 mPa·s
303.16 K, 40160 kPa, Vibrating wire viscometry | 369.8 ± 16 mPa·s
303.16 K, 40170 kPa, Vibrating wire viscometry | 370.5 ± 16 mPa·s and 373.1 ± 16 mPa·s and 370.9 ± 16 mPa·s
303.16 K, 40180 kPa, Vibrating wire viscometry | 373.2 ± 16 mPa·s and 369.5 ± 16 mPa·s
303.17 K, 101.33 kPa, Capillary tube (Ostwald / Ubbelohde) method | 153.9 ± 3.6 mPa·s
303.17 K, 50390 kPa, Vibrating wire viscometry | 462.2 ± 21 mPa·s
303.17 K, 50400 kPa, Vibrating wire viscometry | 462.1 ± 21 mPa·s [middle of 4 runs]
313.16 K, 1220 kPa, Vibrating wire viscometry | 87.78 ± 2.6 mPa·s
313.16 K, 1230 kPa, Vibrating wire viscometry | 87.98 ± 2.6 mPa·s
313.16 K, 1310 kPa, Vibrating wire viscometry | 88.02 ± 2.6 mPa·s
313.16 K, 1320 kPa, Vibrating wire viscometry | 87.62 ± 2.6 mPa·s and 87.55 ± 2.6 mPa·s
313.16 K, 2780 kPa, Vibrating wire viscometry | 90.52 ± 2.6 mPa·s
313.16 K, 5160 kPa, Vibrating wire viscometry | 96.14 ± 2.7 mPa·s
313.16 K, 5170 kPa, Vibrating wire viscometry | 96.24 ± 2.7 mPa·s
313.16 K, 5190 kPa, Vibrating wire viscometry | 96.26 ± 2.8 mPa·s
313.16 K, 5210 kPa, Vibrating wire viscometry | 95.79 ± 2.7 mPa·s
313.16 K, 7710 kPa, Vibrating wire viscometry | 101.6 ± 2.9 mPa·s
313.16 K, 7780 kPa, Vibrating wire viscometry | 101.7 ± 2.9 mPa·s and 101.9 ± 2.9 mPa·s and 101.4 ± 2.9 mPa·s
313.16 K, 7790 kPa, Vibrating wire viscometry | 101.3 ± 2.9 mPa·s
313.16 K, 14800 kPa, Vibrating wire viscometry | 117.6 ± 3.5 mPa·s
313.16 K, 14820 kPa, Vibrating wire viscometry | 117.4 ± 3.5 mPa·s
313.16 K, 20040 kPa, Vibrating wire viscometry | 132.4 ± 4.1 mPa·s
313.16 K, 20050 kPa, Vibrating wire viscometry | 131.6 ± 4 mPa·s
313.16 K, 20060 kPa, Vibrating wire viscometry | 131.6 ± 4 mPa·s
313.16 K, 29930 kPa, Vibrating wire viscometry | 159.8 ± 5.1 mPa·s
313.16 K, 29970 kPa, Vibrating wire viscometry | 160.2 ± 5.2 mPa·s
313.16 K, 29980 kPa, Vibrating wire viscometry | 159.8 ± 5.1 mPa·s
313.16 K, 39960 kPa, Vibrating wire viscometry | 197.4 ± 6.7 mPa·s
313.16 K, 39980 kPa, Vibrating wire viscometry | 197 ± 7 mPa·s
313.16 K, 40000 kPa, Vibrating wire viscometry | 196.9 ± 6.7 mPa·s
313.16 K, 40020 kPa, Vibrating wire viscometry | 196.6 ± 6.7 mPa·s
313.16 K, 50020 kPa, Vibrating wire viscometry | 239.1 ± 8.6 mPa·s
313.16 K, 50040 kPa, Vibrating wire viscometry | 240.3 ± 8.7 mPa·s and 239.4 ± 8.6 mPa·s
313.16 K, 50070 kPa, Vibrating wire viscometry | 239.5 ± 8.6 mPa·s
313.16 K, 50080 kPa, Vibrating wire viscometry | 239.6 ± 8.6 mPa·s
313.16 K, 50090 kPa, Vibrating wire viscometry | 239.3 ± 8.6 mPa·s
313.16 K, 65420 kPa, Vibrating wire viscometry | 317.8 ± 13 mPa·s
313.16 K, 65430 kPa, Vibrating wire viscometry | 319 ± 13 mPa·s
313.16 K, 65440 kPa, Vibrating wire viscometry | 319.8 ± 13 mPa·s
313.16 K, 65470 kPa, Vibrating wire viscometry | 317.5 ± 13 mPa·s
313.17 K, 2780 kPa, Vibrating wire viscometry | 90.59 ± 2.6 mPa·s and 90.6 ± 2.6 mPa·s
313.17 K, 2790 kPa, Vibrating wire viscometry | 90.29 ± 2.5 mPa·s and 90.54 ± 2.6 mPa·s
313.17 K, 2800 kPa, Vibrating wire viscometry | 90.3 ± 2.5 mPa·s
313.17 K, 5170 kPa, Vibrating wire viscometry | 95.9 ± 2.7 mPa·s
313.17 K, 14770 kPa, Vibrating wire viscometry | 117 ± 4 mPa·s
313.17 K, 20060 kPa, Vibrating wire viscometry | 132 ± 4 mPa·s
313.17 K, 29940 kPa, Vibrating wire viscometry | 159.5 ± 5.1 mPa·s
313.18 K, 101.33 kPa, Capillary tube (Ostwald / Ubbelohde) method | 86.37 ± 1.6 mPa·s
323.1 K, 101.33 kPa, Capillary tube (Ostwald / Ubbelohde) method | 52.41 ± 0.84 mPa·s
328.06 K, 101.33 kPa, Capillary tube (Ostwald / Ubbelohde) method | 41.71 ± 0.69 mPa·s
328.15 K, 2490 kPa, Vibrating wire viscometry | 43.18 ± 0.91 mPa·s
328.15 K, 2520 kPa, Vibrating wire viscometry | 43.29 ± 0.91 mPa·s
328.15 K, 5120 kPa, Vibrating wire viscometry | 45.81 ± 0.97 mPa·s
328.15 K, 7540 kPa, Vibrating wire viscometry | 47.59 ± 1 mPa·s
328.15 K, 7550 kPa, Vibrating wire viscometry | 47.68 ± 1 mPa·s
328.15 K, 7560 kPa, Vibrating wire viscometry | 47.66 ± 1 mPa·s
328.15 K, 10410 kPa, Vibrating wire viscometry | 50.91 ± 1.1 mPa·s
328.15 K, 10430 kPa, Vibrating wire viscometry | 50.81 ± 1.1 mPa·s
328.15 K, 15140 kPa, Vibrating wire viscometry | 55.66 ± 1.2 mPa·s
328.15 K, 20020 kPa, Vibrating wire viscometry | 60.75 ± 1.3 mPa·s
328.15 K, 20040 kPa, Vibrating wire viscometry | 60.75 ± 1.3 mPa·s and 60.87 ± 1.3 mPa·s
328.15 K, 30400 kPa, Vibrating wire viscometry | 74.44 ± 2 mPa·s
328.15 K, 30410 kPa, Vibrating wire viscometry | 74.65 ± 2 mPa·s
328.15 K, 30420 kPa, Vibrating wire viscometry | 74.52 ± 2 mPa·s
328.15 K, 40610 kPa, Vibrating wire viscometry | 89.47 ± 2.5 mPa·s
328.15 K, 50030 kPa, Vibrating wire viscometry | 105.8 ± 3.1 mPa·s and 105.5 ± 3.1 mPa·s and 105.9 ± 3.1 mPa·s
328.15 K, 50040 kPa, Vibrating wire viscometry | 105.5 ± 3.1 mPa·s and 105.7 ± 3.1 mPa·s
328.15 K, 50050 kPa, Vibrating wire viscometry | 105.7 ± 3.1 mPa·s
328.15 K, 50070 kPa, Vibrating wire viscometry | 105.9 ± 3.1 mPa·s
328.15 K, 50080 kPa, Vibrating wire viscometry | 105.8 ± 3.1 mPa·s
328.15 K, 65530 kPa, Vibrating wire viscometry | 139.6 ± 4.3 mPa·s
328.16 K, 1000 kPa, Vibrating wire viscometry | 41.66 ± 0.95 mPa·s
328.16 K, 1030 kPa, Vibrating wire viscometry | 41.61 ± 0.95 mPa·s and 41.82 ± 0.96 mPa·s
328.16 K, 1050 kPa, Vibrating wire viscometry | 41.76 ± 0.96 mPa·s
328.16 K, 2510 kPa, Vibrating wire viscometry | 43.2 ± 0.9 mPa·s
328.16 K, 2520 kPa, Vibrating wire viscometry | 43.23 ± 0.91 mPa·s
328.16 K, 2530 kPa, Vibrating wire viscometry | 43.31 ± 0.91 mPa·s
328.16 K, 5100 kPa, Vibrating wire viscometry | 45.73 ± 0.97 mPa·s and 45.69 ± 0.97 mPa·s
328.16 K, 5130 kPa, Vibrating wire viscometry | 45.73 ± 0.97 mPa·s and 45.72 ± 0.97 mPa·s
328.16 K, 5140 kPa, Vibrating wire viscometry | 45.67 ± 0.97 mPa·s
328.16 K, 7580 kPa, Vibrating wire viscometry | 47.76 ± 1 mPa·s
328.16 K, 10390 kPa, Vibrating wire viscometry | 50.78 ± 1.1 mPa·s
328.16 K, 10400 kPa, Vibrating wire viscometry | 50.84 ± 1.1 mPa·s and 50.82 ± 1.1 mPa·s
328.16 K, 10410 kPa, Vibrating wire viscometry | 50.74 ± 1.1 mPa·s
328.16 K, 15100 kPa, Vibrating wire viscometry | 55.71 ± 1.2 mPa·s
328.16 K, 15110 kPa, Vibrating wire viscometry | 55.52 ± 1.2 mPa·s
328.16 K, 15130 kPa, Vibrating wire viscometry | 55.62 ± 1.2 mPa·s
328.16 K, 20020 kPa, Vibrating wire viscometry | 60.83 ± 1.3 mPa·s
328.16 K, 20030 kPa, Vibrating wire viscometry | 60.93 ± 1.3 mPa·s
328.16 K, 30420 kPa, Vibrating wire viscometry | 74.4 ± 2 mPa·s
328.16 K, 40570 kPa, Vibrating wire viscometry | 89.15 ± 2.5 mPa·s
328.16 K, 40590 kPa, Vibrating wire viscometry | 89.1 ± 2.5 mPa·s
328.16 K, 40620 kPa, Vibrating wire viscometry | 89.25 ± 2.5 mPa·s
328.16 K, 50040 kPa, Vibrating wire viscometry | 105.5 ± 3.1 mPa·s
328.16 K, 65490 kPa, Vibrating wire viscometry | 139.6 ± 4.3 mPa·s
343.14 K, 1080 kPa, Vibrating wire viscometry | 22.75 ± 0.5 mPa·s
343.14 K, 10140 kPa, Vibrating wire viscometry | 27.1 ± 0.6 mPa·s
343.14 K, 10150 kPa, Vibrating wire viscometry | 27.11 ± 0.57 mPa·s and 27.07 ± 0.57 mPa·s
343.14 K, 19890 kPa, Vibrating wire viscometry | 32.41 ± 0.68 mPa·s
343.14 K, 19900 kPa, Vibrating wire viscometry | 32.35 ± 0.68 mPa·s and 32.43 ± 0.68 mPa·s
343.14 K, 19910 kPa, Vibrating wire viscometry | 32.45 ± 0.68 mPa·s
343.14 K, 19920 kPa, Vibrating wire viscometry | 32.38 ± 0.68 mPa·s
343.14 K, 19930 kPa, Vibrating wire viscometry | 32.41 ± 0.68 mPa·s
343.14 K, 30240 kPa, Vibrating wire viscometry | 38.59 ± 0.81 mPa·s
343.14 K, 30250 kPa, Vibrating wire viscometry | 38.67 ± 0.82 mPa·s and 38.63 ± 0.82 mPa·s and 38.6 ± 0.8 mPa·s
343.14 K, 30260 kPa, Vibrating wire viscometry | 38.59 ± 0.81 mPa·s
343.14 K, 40260 kPa, Vibrating wire viscometry | 45.94 ± 0.97 mPa·s
343.14 K, 40270 kPa, Vibrating wire viscometry | 45.89 ± 0.97 mPa·s and 45.83 ± 0.97 mPa·s
343.14 K, 40280 kPa, Vibrating wire viscometry | 45.91 ± 0.97 mPa·s
343.14 K, 49840 kPa, Vibrating wire viscometry | 53.72 ± 1.4 mPa·s and 53.82 ± 1.4 mPa·s
343.14 K, 49860 kPa, Vibrating wire viscometry | 53.79 ± 1.4 mPa·s
